Measurements published in PubChem BioAssay (NCI).
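GI50: concentration for 50% inhibition of growth. TGI is the concentration that stops growth completely.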

Key:
Test in all cases: NCI anticancer screen, dose series, 384-well format
[1] = tested on: NCI-H460 NSCLC
[2] = tested on: LOX IMVI melanoma
[3] = tested on: KM12 colon
[4] = tested on: CCRF-CEM leukemia
[5] = tested on: SR leukemia
[6] = tested on: PC-3 prostate
[7] = tested on: MALME-3M melanoma
[8] = tested on: HOP-62 NSCLC
[9] = tested on: SK-OV-3 ovarian
[10] = tested on: SK-MEL-28 melanoma
[11] = tested on: OVCAR-5 ovarian
[12] = tested on: K-562 leukemia
[13] = tested on: NCI-H322M lung
[14] = tested on: NCI-H522 lung
[15] = tested on: ACHN renal
[16] = tested on: HCT-116 colon
[17] = tested on: A498 renal
[18] = tested on: HCC-2998 colon
[19] = tested on: NCI/ADR-RES ovarian
[20] = tested on: A549 NSCLC
[21] = tested on: SK-MEL-2 melanoma
[22] = tested on: CAKI-1 renal
[23] = tested on: SF-268 CNS
[24] = tested on: SW-620 colon
[25] = tested on: 786-0 renal
[26] = tested on: MDA-MB-435 melanoma
[27] = tested on: SNB-19 CNS
[28] = tested on: UACC-257 melanoma

Cc1c2c(nn1C)CSCc1cc(n(C)n1)CSc1cc(c3ccccc3c1)OCCCc1c(C(=O)O)n(C)c3c-2c(Cl)ccc13
GI50 [1]: 1.96 µM
TGI [1]: 4.68 µM
GI50 [2]: 3.01 µM
TGI [2]: 10.1 µM
GI50 [3]: 2.13 µM
TGI [3]: 5.14 µM
GI50 [4]: 0.631 µM
TGI [4]: 2.33 µM
GI50 [5]: 0.0157 µM
TGI [5]: 0.0329 µM
GI50 [6]: 3.04 µM
TGI [6]: 9.02 µM
GI50 [7]: 1.76 µM
TGI [7]: 4.45 µM
GI50 [8]: 2.41 µM
TGI [8]: 10.6 µM
GI50 [9]: 6.18 µM
TGI [9]: 19.2 µM
GI50 [10]: 2.51 µM
TGI [10]: 7.44 µM
GI50 [11]: 3.99 µM
TGI [11]: 14 µM
GI50 [12]: 3.78 µM
TGI [12]: 13.1 µM
GI50 [13]: 8.43 µM
TGI [13]: 20.8 µM
GI50 [14]: 0.0686 µM
TGI [14]: 0.581 µM
GI50 [15]: 4.09 µM
TGI [15]: 15.9 µM
GI50 [16]: 2.41 µM
TGI [16]: 6.04 µM
GI50 [17]: 3.69 µM
TGI [17]: 14.1 µM
GI50 [18]: 1.11 µM
TGI [18]: 3.94 µM
GI50 [19]: 12 µM
TGI [19]: 24.4 µM
GI50 [20]: 3.94 µM
TGI [20]: 15.1 µM
GI50 [21]: 0.0454 µM
TGI [21]: 0.189 µM
GI50 [22]: 5.74 µM
TGI [22]: 18.2 µM
GI50 [23]: 3.04 µM
TGI [23]: 11.9 µM
GI50 [24]: 3.96 µM
TGI [24]: 13.6 µM
GI50 [25]: 3.06 µM
TGI [25]: 11.5 µM
GI50 [26]: 1.01 µM
TGI [26]: 13.2 µM
GI50 [27]: 3.5 µM
TGI [27]: 12 µM
GI50 [28]: 2.59 µM
TGI [28]: 9.27 µM
